Molecular target: T1, histamine H4 receptor (Homo sapiens, UniProt Q9H3N8)
T1 construct: expressed in transfected cells; host or cells: CHO cells (membranes)
Test: H4 binding ([3H]-Histamine competition binding on CHO cell membranes)
Conditions: [3H]-Histamine 3 nM, membranes of CHO cells expressing the histamine H4 receptor; Ki calculated from IC50 by Cheng-Prussoff
Procedure: Cell pellets from CHO cells expressing the histamine H4 receptor were homogenised in ice-cold 50 mM Tris-HCl/0.5 mM CaCl2 buffer containing a protease inhibitor cocktail (Roche®, United Kingdom) using a ground glass homogeniser. Homogenates were centrifuged at 48000 g for 30 min at 4° C. The membrane pellet was resuspended in fresh buffer and the centrifugation step was repeated as described above. The membrane pellet was resuspended in 50 mM Tris-HCl in the same volume as the original cell pellet.
The reaction was terminated by rapid filtration through 0.5% polyethylenimine-soaked Unifilter GF/B plates (Packard) followed by three washes with 1 ml ice-cold 50 mM Tris-HCl. Filters were dried for 45 min at 45° C. and bound radiolabel was determined using scintillation counting techniques. Non-specific binding was defined with 5 μM clobenpropit.

SMILES	Ki
CN1C[C@@H]2CN(C(=O)c3nc4cc(F)ccc4[nH]3)C[C@@H]2C1 [Example 3, 5-Fluoro-2-{[(3aR,6aS)-5-methylhexahydropyrrolo[3,4-c]pyrrol-2(1H)-yl]carbonyl}-1H-benzimidazole]	82 nM
CN1C[C@@H]2CN(C(=O)c3cc4cc(O)ccc4[nH]3)C[C@@H]2C1 [Example 15, 2-{[(3aR,6aS)-5-Methylhexahydropyrrolo[3,4-c]pyrrol-2(1H)-yl]carbonyl}-1H-indol-5-ol]	28 nM
CN1C[C@@H]2CN(C(=O)c3cc4cc(F)ccc4[nH]3)C[C@@H]2C1 [Example 16, 5-Fluoro-2-{[(3aR,6aS)-5-methylhexahydropyrrolo[3,4-c]pyrrol-2(1H)-yl]carbonyl}-1H-indole]	20 nM
Cc1ccc2[nH]c(C(=O)N3C[C@H]4CN(C)C[C@H]4C3)cc2c1 [Example 17, 5-Methyl-2-{[(3aR,6aS)-5-methylhexahydropyrrolo[3,4-c]pyrrol-2(1H)-yl]carbonyl}-1H-indole]	84 nM
CN1C[C@@H]2CN(C(=O)c3cc4cccc(F)c4[nH]3)C[C@@H]2C1 [Example 22, 7-Fluoro-2-{[(3aR,6aS)-5-methylhexahydropyrrolo[3,4-c]pyrrol-2(1H)-yl]carbonyl}-1H-indole]	20 nM
CN1C[C@@H]2CN(C(=O)c3nc4ccc(F)c(F)c4[nH]3)C[C@@H]2C1 [Example 25, 6,7-Difluoro-2-{[(3aR,6aS)-5-methylhexahydropyrrolo[3,4-c]pyrrol-2(1H)-yl]carbonyl}-1H-benzimidazole]	67 nM
Cc1cccc2nc(C(=O)N3C[C@H]4CN(C)C[C@H]4C3)[nH]c12 [Example 26, 7-Methyl-2-{[(3aR,6aS)-5-methylhexahydropyrrolo[3,4-c]pyrrol-2(1H)-yl]carbonyl}-1H-benzimidazole]	110 nM
Cc1c(F)ccc2nc(C(=O)N3C[C@H]4CN(C)C[C@H]4C3)[nH]c12 [Example 41, 5-fluoro-4-methyl-2-{[(3aR,6aS)-5-methylhexahydropyrrolo [3,4-c]pyrrol-2(1H)-yl]carbonyl}-1H-benzimidazole]	53 nM
CN1C[C@@H]2CN(C(=O)c3nc4c(F)c(F)c(F)cc4[nH]3)C[C@@H]2C1 [Example 58, 4,5,6-Trifluoro-2-{[(3aR,6aS)-5-methylhexahydropyrrolo [3,4-c]pyrrol-2(1H)-yl]carbonyl}-1H-benzimidazole]	100 nM
CN1C[C@@H]2CN(C(=N)c3nc4cc(F)c(F)cc4[nH]3)C[C@@H]2C1 [Example 59, 1-(5,6-Difluoro-1H-benzimidazol-2-yl)-1-[(3aR,6aS)-5-methylhexahydropyrrolo[3,4-c]pyrrol-2(1H)-yl]methanimine]	7 nM
CN1C[C@@H]2CN(C(=N)c3nc4cc(F)ccc4[nH]3)C[C@@H]2C1 [Example 60, 1-(5-Fluoro-1H-benzimidazol-2-yl)-1-[(3aR,6aS)-5-methylhexahydropyrrolo[3,4-c]pyrrol-2(1H)-yl]methanimine]	6 nM
Cc1cccc2nc(C(=N)N3C[C@H]4CN(C)C[C@H]4C3)[nH]c12 [Example 62, 1-(4-Methyl-1H-benzimidazol-2-yl)-1-[(3aR, 6aS)-5-methylhexahydropyrrolo[3,4-c]pyrrol-2(1H)-yl]methanimine]	7 nM
CN1C[C@@H]2CN(C(=N)c3nc4cc(F)cc(F)c4[nH]3)C[C@@H]2C1 [Example 63, 1-(4,6-Difluoro-1H-benzimidazol-2-yl)-1-[(3aR, 6aS)-5-methylhexahydropyrrolo[3,4-c]pyrrol-2(1H)-yl]methanimine]	47 nM
Cc1c(F)ccc2nc(C(=N)N3C[C@H]4CN(C)C[C@H]4C3)[nH]c12 [Example 64, 1-(6-Fluoro-7-methyl-1H-benzimidazol-2-yl)-1-[(3aR, 6aS)-5-methylhexahydropyrrolo[3,4-c]pyrrol-2(1H)-yl]methanimine]	4 nM

Continued by falling Ki, values first:

Ki	SMILES
117 nM	CN1C[C@@H]2CN(C(=O)c3nc4cc(F)c(F)cc4[nH]3)C[C@@H]2C1 [Example 27, 5,6-Difluoro-2-{[(3aR,6aS)-5-methylhexahydropyrrolo[3,4-c]pyrrol-2(1H)-yl]carbonyl}-1H-benzimidazole]
91 nM	CN1C[C@@H]2CN(C(=O)c3nc4ccccc4[nH]3)C[C@@H]2C1 [Example 1, 2-{[(3aR,6aS)5-Methylhexahydropyrrolo[3,4-c]pyrrol-2(1H)-yl]carbonyl}-1H-benzimidazole]
91 nM	Cc1c(Cl)ccc2[nH]c(C(=O)N3C[C@H]4CN(C)C[C@H]4C3)nc12 [Example 48, 5-Chloro-4-methyl-2-{[(3aR,6aS)-5-methylhexahydropyrrolo[3,4-c]pyrrol-2(1H)-yl]carbonyl}-1H-benzimidazole]
60 nM	CN1C[C@@H]2CN(C(=N)c3nc4c(F)c(F)c(F)cc4[nH]3)C[C@@H]2C1 [Example 67, 1-[(3aR, 6aS)-5-Methylhexahydropyrrolo[3,4-c]pyrrol-2(1H)-yl]-1-(4,5,6-trifluoro-1H-benzimidazol-2-yl)methanimine]
43 nM	CN1C[C@@H]2CN(C(=O)c3cc4cc(Br)ccc4[nH]3)C[C@@H]2C1 [Example 21, 5-Bromo-2-{[(3aR,6aS)-5-methylhexahydropyrrolo[3,4-c]pyrrol-2(1H)-yl]carbonyl}-1H-indole]
26 nM	CN1C[C@@H]2CN(C(=N)c3nc4cc(Cl)ccc4[nH]3)C[C@@H]2C1 [Example 68, 1-(5-Chloro-1H-benzimidazol-2-yl)-1-[(3aR, 6aS)-5-methylhexahydropyrrolo[3,4-c]pyrrol-2(1H)-yl]methanimine]
24 nM	CN1C[C@@H]2CN(C(=N)c3nc4c(F)c(F)ccc4[nH]3)C[C@@H]2C1 [Example 61, 1-(4,5-Difluoro-1H-benzimidazol-2-yl)-1-[(3aR, 6aS)-5-methylhexahydropyrrolo[3,4-c]pyrrol-2(1H)-yl]methanimine]
24 nM	CN1C[C@@H]2CN(C(=N)c3nc4cccc(F)c4[nH]3)C[C@@H]2C1 [Example 66, 1-(7-Fluoro-1H-benzimidazol-2-yl)-1-[(3aR, 6aS)-5-methylhexahydropyrrolo[3,4-c]pyrrol-2(1H)-yl]methanimine]
16 nM	CN1C[C@@H]2CN(C(=O)c3cc4cc(Cl)ccc4[nH]3)C[C@@H]2C1 [Example 7, 5-Chloro-2-{[(3aR,6aS)-5-methylhexahydropyrrolo[3,4-c]pyrrol-2(1H)-yl]carbonyl}-1H-indole]
12 nM	Cc1c(Cl)ccc2nc(C(=N)N3C[C@H]4CN(C)C[C@H]4C3)[nH]c12 [Example 65, 1-(6-Chloro-7-methyl-1H-benzimidazol-2-yl)-1-[(3aR, 6aS)-5-methylhexahydropyrrolo[3,4-c]pyrrol-2(1H)-yl]methanimine]

— patent US20060111416A1, “Octahydropyrrolo[3,4-C]pyrrole derivatives” (priority 2004, published 2006)
